Measurements from publication PMC8401933 (Molecules, 2021).
“Also recorded” adds a separate entry of the source.

Assays:
EPHA2 = biological target: T1, EPHA2 (Homo sapiens, UniProt P29317); assay: KINOMEscan binding; conditions: read-out: Percent Control
T1 construct: purchased Eurofins DiscoverX KINOMEscan

CDK7 = biological target: T2, CDK7 (Homo sapiens, UniProt P50613); assay: KINOMEscan binding; conditions: read-out: Percent Control
T2 construct: purchased Eurofins DiscoverX KINOMEscan

PRKR = biological target: T3, PRKR (Homo sapiens, UniProt P19525); assay: KINOMEscan binding; conditions: read-out: Percent Control
T3 construct: purchased Eurofins DiscoverX KINOMEscan

MKK7 = biological target: T4, MKK7 (Homo sapiens, UniProt O14733); assay: KINOMEscan binding; conditions: read-out: Percent Control
T4 construct: purchased Eurofins DiscoverX KINOMEscan

PIP5K2C = biological target: T5, PIP5K2C (Homo sapiens, UniProt Q8TBX8); assay: KINOMEscan binding; conditions: read-out: Percent Control
T5 construct: purchased Eurofins DiscoverX KINOMEscan

TXK = biological target: T6, TXK (Homo sapiens, UniProt P42681); assay: KINOMEscan binding; conditions: read-out: Percent Control
T6 construct: purchased Eurofins DiscoverX KINOMEscan

p38-beta = biological target: T7, p38-beta (Homo sapiens, UniProt Q15759); assay: KINOMEscan binding; conditions: read-out: Percent Control
T7 construct: purchased Eurofins DiscoverX KINOMEscan

ARK5 = biological target: T8, ARK5 (Homo sapiens, UniProt O60285); assay: KINOMEscan binding; conditions: read-out: Percent Control
T8 construct: purchased Eurofins DiscoverX KINOMEscan

IRAK3 = biological target: T9, IRAK3 (Homo sapiens, UniProt Q9Y616); assay: KINOMEscan binding; conditions: read-out: Percent Control
T9 construct: purchased Eurofins DiscoverX KINOMEscan

KIT(A829P) = biological target: T10, KIT(A829P) (Homo sapiens, UniProt P10721, A829P); assay: KINOMEscan binding; conditions: read-out: Percent Control
T10 construct: purchased Eurofins DiscoverX KINOMEscan

ITK = biological target: T11, ITK (Homo sapiens, UniProt Q08881); assay: KINOMEscan binding; conditions: read-out: Percent Control
T11 construct: purchased Eurofins DiscoverX KINOMEscan

3T3-L1 cells = assay: Adipocyte differentiation, Oil Red O staining; assay type: cell-based; conditions: for quantity of lipid droplets (ORO staining): CX-4945 5 μM, KD025 3 μM
Protocol: The preadipocyte 3T3-L1 cell line was kindly provided by Dr. Hyun-Sung Park (University of Seoul) and cultured in Dulbecco’s modified Eagle’s medium (DMEM, Sigma-Aldrich) supplied with 10% heat-inactivated newborn calf serum (Invitrogen, CA, USA), 100 units/mL penicillin, and 100 µg/mL streptomycin (Cellgro, VA, USA). The cells were maintained in an incubator at 37 °C and 5% CO2. To initiate differentiation, the cells were incubated for additional days after 100% confluence and then further incubated in a medium containing fetal bovine serum (FBS) and a differentiation cocktail (DMI, 1 μM dexamethasone, 0.5 mM 3-isobutyl-1-methylxanthine, and 5 μg/mL insulin) as previously described. In brief, at day 3, the culture medium was replaced with DMEM/10%FBS containing 5 µg/mL insulin. Then, growth medium was changed every 2 days.
Lipid droplets of cells were stained using ORO (Sigma-Aldrich, MA, USA). In brief, the cells were washed with phosphate buffered saline and incubated with 10% formalin for 5 min. The cells were then fixed with the same volume of fresh formalin for at least 1 h. Subsequently, the cells were washed with 60% isopropanol, air dried completely, and then stained with ORO working solution (1% ORO/isopropanol: distilled water = 3:2). The stained cells were washed with water four times. Cell images were taken by a microscope (Nikon Eclipse TS100-F, Japan). Then, 100% isopropanol was added and incubated for 10 min to quantify the intensity of ORO. The quantity of extracted dye was obtained by obtaining absorbance at 540 nm in the Synergy H1 hybrid reader (BioTek, VT, USA).

RET(V804L) = biological target: T12, RET(V804L) (Homo sapiens, UniProt P07949, V804L); assay: KINOMEscan binding; conditions: read-out: Percent Control
T12 construct: purchased Eurofins DiscoverX KINOMEscan

ACVR1B = biological target: T13, ACVR1B (Homo sapiens, UniProt P36896); assay: KINOMEscan binding; conditions: read-out: Percent Control
T13 construct: purchased Eurofins DiscoverX KINOMEscan

LRRK2 = biological target: T14, LRRK2 (Homo sapiens, UniProt Q5S007); assay: KINOMEscan binding; conditions: read-out: Percent Control
T14 construct: purchased Eurofins DiscoverX KINOMEscan

CDK8 = biological target: T15, CDK8 (Homo sapiens, UniProt P49336); assay: KINOMEscan binding; conditions: read-out: Percent Control
T15 construct: purchased Eurofins DiscoverX KINOMEscan

PCTK1 = biological target: T16, PCTK1 (Homo sapiens, UniProt Q00536); assay: KINOMEscan binding; conditions: read-out: Percent Control
T16 construct: purchased Eurofins DiscoverX KINOMEscan

CAMK1 = biological target: T17, CAMK1 (Homo sapiens, UniProt Q14012); assay: KINOMEscan binding; conditions: read-out: Percent Control
T17 construct: purchased Eurofins DiscoverX KINOMEscan

TIE2 = biological target: T18, TIE2 (Homo sapiens, UniProt Q02763); assay: KINOMEscan binding; conditions: read-out: Percent Control
T18 construct: purchased Eurofins DiscoverX KINOMEscan

CDK4-cyclinD3 = biological target: T19, CDK4-cyclinD3 (Homo sapiens, UniProt P11802); assay: KINOMEscan binding; conditions: read-out: Percent Control
T19 construct: purchased Eurofins DiscoverX KINOMEscan

PFTAIRE2 = biological target: T20, PFTAIRE2 (Homo sapiens, UniProt Q96Q40); assay: KINOMEscan binding; conditions: read-out: Percent Control
T20 construct: purchased Eurofins DiscoverX KINOMEscan

[1] = biological target: T21, ABL1(E255K)-phosphorylated (Homo sapiens, UniProt P00519, E255K); assay: KINOMEscan binding; conditions: read-out: Percent Control
T21 construct: purchased Eurofins DiscoverX KINOMEscan

PIP5K1A = biological target: T22, PIP5K1A (Homo sapiens, UniProt Q99755); assay: KINOMEscan binding; conditions: read-out: Percent Control
T22 construct: purchased Eurofins DiscoverX KINOMEscan

PIK3CA(H1047Y) = biological target: T23, PIK3CA(H1047Y) (Homo sapiens, UniProt P42336, H1047Y); assay: KINOMEscan binding; conditions: read-out: Percent Control
T23 construct: purchased Eurofins DiscoverX KINOMEscan

DCAMKL3 = biological target: T24, DCAMKL3 (Homo sapiens, UniProt Q9C098); assay: KINOMEscan binding; conditions: read-out: Percent Control
T24 construct: purchased Eurofins DiscoverX KINOMEscan

CLK2 = biological target: T25, CLK2 (Homo sapiens, UniProt P49760); assay: KINOMEscan binding; conditions: read-out: Percent Control
T25 construct: purchased Eurofins DiscoverX KINOMEscan

PIK3CG = biological target: T26, PIK3CG (Homo sapiens, UniProt P48736); assay: KINOMEscan binding; conditions: read-out: Percent Control
T26 construct: purchased Eurofins DiscoverX KINOMEscan

MEK4 = biological target: T27, MEK4 (Homo sapiens, UniProt P45985); assay: KINOMEscan binding; conditions: read-out: Percent Control
T27 construct: purchased Eurofins DiscoverX KINOMEscan

PRKD2 = biological target: T28, PRKD2 (Homo sapiens, UniProt Q9BZL6); assay: KINOMEscan binding; conditions: read-out: Percent Control
T28 construct: purchased Eurofins DiscoverX KINOMEscan

PRKCE = biological target: T29, PRKCE (Homo sapiens, UniProt Q02156); assay: KINOMEscan binding; conditions: read-out: Percent Control
T29 construct: purchased Eurofins DiscoverX KINOMEscan

LOK = biological target: T30, LOK (Homo sapiens, UniProt O94804); assay: KINOMEscan binding; conditions: read-out: Percent Control
T30 construct: purchased Eurofins DiscoverX KINOMEscan

PRKD3 = biological target: T31, PRKD3 (Homo sapiens, UniProt O94806); assay: KINOMEscan binding; conditions: read-out: Percent Control
T31 construct: purchased Eurofins DiscoverX KINOMEscan

FLT3(D835V) = biological target: T32, FLT3(D835V) (Homo sapiens, UniProt P36888, D835V); assay: KINOMEscan binding; conditions: read-out: Percent Control
T32 construct: purchased Eurofins DiscoverX KINOMEscan

TNK1 = biological target: T33, TNK1 (Homo sapiens, UniProt Q13470); assay: KINOMEscan binding; conditions: read-out: Percent Control
T33 construct: purchased Eurofins DiscoverX KINOMEscan

T6 sequence (P42681 whole entry): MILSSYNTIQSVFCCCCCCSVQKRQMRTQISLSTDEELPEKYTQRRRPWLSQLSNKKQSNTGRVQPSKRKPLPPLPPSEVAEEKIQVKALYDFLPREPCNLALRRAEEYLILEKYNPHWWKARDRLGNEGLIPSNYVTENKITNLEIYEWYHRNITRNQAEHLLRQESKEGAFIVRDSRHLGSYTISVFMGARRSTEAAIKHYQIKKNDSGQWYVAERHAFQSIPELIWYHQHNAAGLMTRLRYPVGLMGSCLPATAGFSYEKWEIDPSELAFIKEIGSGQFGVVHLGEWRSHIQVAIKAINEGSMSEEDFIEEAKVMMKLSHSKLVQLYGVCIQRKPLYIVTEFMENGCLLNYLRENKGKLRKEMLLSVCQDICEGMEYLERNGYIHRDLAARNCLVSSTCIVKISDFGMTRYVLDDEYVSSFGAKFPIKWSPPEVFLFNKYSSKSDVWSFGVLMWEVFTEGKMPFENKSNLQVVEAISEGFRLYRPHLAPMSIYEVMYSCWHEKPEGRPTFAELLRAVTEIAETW
T31 sequence (O94806 whole entry): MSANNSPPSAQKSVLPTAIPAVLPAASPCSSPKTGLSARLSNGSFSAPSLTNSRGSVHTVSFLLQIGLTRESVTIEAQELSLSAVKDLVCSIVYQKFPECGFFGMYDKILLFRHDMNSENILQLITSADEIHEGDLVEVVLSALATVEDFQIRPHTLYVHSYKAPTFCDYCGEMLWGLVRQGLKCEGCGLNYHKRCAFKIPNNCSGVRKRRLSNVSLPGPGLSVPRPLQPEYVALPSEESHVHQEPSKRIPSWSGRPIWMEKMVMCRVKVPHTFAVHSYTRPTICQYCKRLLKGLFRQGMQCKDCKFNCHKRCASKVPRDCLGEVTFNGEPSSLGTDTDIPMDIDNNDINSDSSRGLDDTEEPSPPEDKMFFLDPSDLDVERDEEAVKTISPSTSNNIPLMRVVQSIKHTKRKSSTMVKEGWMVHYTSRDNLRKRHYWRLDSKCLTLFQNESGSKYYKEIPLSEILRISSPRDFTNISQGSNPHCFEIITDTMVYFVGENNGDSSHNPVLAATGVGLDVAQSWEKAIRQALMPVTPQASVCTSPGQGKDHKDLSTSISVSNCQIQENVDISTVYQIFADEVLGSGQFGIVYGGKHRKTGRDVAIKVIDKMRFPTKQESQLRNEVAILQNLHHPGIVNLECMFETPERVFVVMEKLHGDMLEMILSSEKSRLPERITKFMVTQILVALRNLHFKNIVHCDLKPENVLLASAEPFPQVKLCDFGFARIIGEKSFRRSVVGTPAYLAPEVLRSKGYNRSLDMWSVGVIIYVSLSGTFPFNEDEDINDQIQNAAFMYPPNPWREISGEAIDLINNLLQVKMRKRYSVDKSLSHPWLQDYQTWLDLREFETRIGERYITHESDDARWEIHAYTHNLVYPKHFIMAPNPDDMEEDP
T19 sequence (P11802 whole entry): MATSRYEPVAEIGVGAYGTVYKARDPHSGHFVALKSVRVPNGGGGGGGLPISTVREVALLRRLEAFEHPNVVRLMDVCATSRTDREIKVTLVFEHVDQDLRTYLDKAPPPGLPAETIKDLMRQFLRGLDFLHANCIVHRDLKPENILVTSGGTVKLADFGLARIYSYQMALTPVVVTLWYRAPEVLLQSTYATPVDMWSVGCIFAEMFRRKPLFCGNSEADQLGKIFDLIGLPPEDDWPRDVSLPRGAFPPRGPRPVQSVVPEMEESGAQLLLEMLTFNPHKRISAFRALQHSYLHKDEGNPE
T19 sequence (P30281 whole entry partner): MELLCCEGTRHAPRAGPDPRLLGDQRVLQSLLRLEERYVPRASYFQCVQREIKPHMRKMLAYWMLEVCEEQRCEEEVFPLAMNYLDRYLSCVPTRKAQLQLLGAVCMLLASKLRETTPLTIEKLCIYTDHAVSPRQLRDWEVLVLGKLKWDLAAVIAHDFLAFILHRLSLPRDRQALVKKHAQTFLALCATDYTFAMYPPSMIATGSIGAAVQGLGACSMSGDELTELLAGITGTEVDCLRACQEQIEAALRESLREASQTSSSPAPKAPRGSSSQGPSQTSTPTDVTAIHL
T27 sequence (P45985 whole entry): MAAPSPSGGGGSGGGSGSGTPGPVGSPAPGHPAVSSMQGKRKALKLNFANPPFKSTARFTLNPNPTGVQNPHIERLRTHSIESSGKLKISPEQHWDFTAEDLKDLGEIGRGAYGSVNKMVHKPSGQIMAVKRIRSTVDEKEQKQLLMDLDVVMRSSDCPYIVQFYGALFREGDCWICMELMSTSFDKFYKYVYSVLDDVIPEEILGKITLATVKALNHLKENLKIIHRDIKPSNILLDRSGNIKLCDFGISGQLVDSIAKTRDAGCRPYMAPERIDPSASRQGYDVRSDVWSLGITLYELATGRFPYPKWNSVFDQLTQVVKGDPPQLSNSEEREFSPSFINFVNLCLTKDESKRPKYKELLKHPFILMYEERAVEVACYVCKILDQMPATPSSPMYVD
T22 sequence (Q99755 whole entry): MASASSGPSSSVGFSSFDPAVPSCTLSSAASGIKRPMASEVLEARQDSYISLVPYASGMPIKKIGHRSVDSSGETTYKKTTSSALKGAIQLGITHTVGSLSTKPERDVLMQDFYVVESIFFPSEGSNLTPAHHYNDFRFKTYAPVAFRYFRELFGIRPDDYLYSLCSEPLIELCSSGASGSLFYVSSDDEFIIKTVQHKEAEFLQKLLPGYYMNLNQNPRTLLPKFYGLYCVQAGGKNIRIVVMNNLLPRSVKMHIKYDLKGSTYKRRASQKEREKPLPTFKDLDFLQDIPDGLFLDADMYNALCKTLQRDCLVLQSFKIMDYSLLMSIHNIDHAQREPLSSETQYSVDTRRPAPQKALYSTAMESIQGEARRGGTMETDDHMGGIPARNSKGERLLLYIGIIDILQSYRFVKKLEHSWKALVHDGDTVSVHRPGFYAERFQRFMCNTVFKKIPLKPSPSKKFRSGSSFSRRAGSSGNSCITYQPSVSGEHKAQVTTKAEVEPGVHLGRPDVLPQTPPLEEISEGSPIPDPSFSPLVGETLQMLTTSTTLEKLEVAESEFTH
T11 sequence (Q08881 whole entry): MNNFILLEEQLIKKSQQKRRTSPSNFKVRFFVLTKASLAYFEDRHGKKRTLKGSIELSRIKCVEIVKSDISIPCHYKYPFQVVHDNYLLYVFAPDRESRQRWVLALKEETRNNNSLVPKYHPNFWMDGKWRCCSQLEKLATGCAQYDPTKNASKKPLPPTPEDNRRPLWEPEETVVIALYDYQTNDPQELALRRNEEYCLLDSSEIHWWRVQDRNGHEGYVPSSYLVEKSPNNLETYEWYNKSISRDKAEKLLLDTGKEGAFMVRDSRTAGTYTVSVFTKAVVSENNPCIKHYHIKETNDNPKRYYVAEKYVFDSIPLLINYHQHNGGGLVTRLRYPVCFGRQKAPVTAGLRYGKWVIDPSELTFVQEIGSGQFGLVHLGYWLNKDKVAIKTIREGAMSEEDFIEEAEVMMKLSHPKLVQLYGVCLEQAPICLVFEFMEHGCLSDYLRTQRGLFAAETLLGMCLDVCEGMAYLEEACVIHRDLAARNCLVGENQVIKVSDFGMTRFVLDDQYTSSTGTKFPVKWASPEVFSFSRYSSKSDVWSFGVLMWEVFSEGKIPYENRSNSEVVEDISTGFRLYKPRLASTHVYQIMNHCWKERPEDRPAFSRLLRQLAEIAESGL
T20 sequence (Q96Q40 whole entry): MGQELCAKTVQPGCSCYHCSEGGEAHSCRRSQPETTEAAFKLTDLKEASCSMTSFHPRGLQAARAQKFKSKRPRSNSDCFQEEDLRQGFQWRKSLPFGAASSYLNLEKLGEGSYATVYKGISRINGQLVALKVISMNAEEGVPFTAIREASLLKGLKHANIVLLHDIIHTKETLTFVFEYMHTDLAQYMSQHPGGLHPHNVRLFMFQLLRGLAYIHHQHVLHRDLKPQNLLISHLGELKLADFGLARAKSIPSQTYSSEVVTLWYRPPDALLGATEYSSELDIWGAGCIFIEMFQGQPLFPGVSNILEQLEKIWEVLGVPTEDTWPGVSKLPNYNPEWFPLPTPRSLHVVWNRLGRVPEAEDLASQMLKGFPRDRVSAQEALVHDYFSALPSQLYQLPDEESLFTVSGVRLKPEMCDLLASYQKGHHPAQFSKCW
T4 sequence (O14733 whole entry): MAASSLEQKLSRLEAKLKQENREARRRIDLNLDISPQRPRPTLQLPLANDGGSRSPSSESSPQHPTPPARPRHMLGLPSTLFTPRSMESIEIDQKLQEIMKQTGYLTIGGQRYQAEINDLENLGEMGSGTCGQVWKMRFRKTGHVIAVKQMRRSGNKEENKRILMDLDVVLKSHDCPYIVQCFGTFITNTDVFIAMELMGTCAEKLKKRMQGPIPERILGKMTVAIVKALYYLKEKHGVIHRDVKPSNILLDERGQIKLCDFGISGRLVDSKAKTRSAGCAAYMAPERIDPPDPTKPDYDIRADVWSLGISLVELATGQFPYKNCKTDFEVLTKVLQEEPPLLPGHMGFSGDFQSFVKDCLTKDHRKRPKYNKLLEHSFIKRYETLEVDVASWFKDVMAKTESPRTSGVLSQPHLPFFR
T15 sequence (P49336 whole entry): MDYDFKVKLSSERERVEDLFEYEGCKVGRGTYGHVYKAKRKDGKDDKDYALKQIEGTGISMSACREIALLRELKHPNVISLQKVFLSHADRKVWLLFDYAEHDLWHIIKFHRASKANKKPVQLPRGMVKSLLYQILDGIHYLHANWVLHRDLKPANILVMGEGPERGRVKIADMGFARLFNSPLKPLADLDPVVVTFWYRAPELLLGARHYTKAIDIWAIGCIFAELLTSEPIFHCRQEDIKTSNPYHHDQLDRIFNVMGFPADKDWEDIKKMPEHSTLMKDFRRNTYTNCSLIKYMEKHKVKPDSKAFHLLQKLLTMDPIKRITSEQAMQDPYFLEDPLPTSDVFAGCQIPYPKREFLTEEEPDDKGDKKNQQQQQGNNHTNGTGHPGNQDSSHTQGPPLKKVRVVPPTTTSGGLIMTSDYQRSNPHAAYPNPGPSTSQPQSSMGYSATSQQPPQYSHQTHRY

SMILES: CC(C)NC(=O)COc1cccc(-c2nc(Nc3ccc4[nH]ncc4c3)c3ccccc3n2)c1 [KD025, 2-(3-(4-((1H-indazol-5-yl)amino)quinazolin-2-yl)phenoxy)-N-isopropylacetamide]
- remaining binding at 10 µM (EPHA2): 59%
- remaining binding at 10 µM (CDK7): 76%
- remaining binding at 10 µM (PRKR): 54%
- remaining binding at 10 µM (MKK7): 73%
- remaining binding at 10 µM (PIP5K2C): 71%
- remaining binding at 10 µM (TXK): 76%
- remaining binding at 10 µM (p38-beta): 93%
- remaining binding at 10 µM (ARK5): 100%
- remaining binding at 10 µM (IRAK3): 96%
- remaining binding at 10 µM (KIT(A829P)): 53%
- remaining binding at 10 µM (ITK): 92%
- lipid accumulation / adipocyte differentiation (ORO staining) (3T3-L1 cells; 3T3-L1, treated during differentiation, stained at day 8): suppressed the generation of lipid droplets; also recorded: reduces fat accumulation
- quantity of lipid droplets (ORO staining) (3T3-L1 cells; 3T3-L1, treated during the early (days 0–1) or late (days 5–8) stage): ineffective; also recorded: lesser effect
- quantity of lipid droplets (ORO staining) (3T3-L1 cells; 3T3-L1, treated during the intermediate stage (days 1–3)): acted specifically in the middle stage; also recorded: significantly reduced
- remaining binding at 10 µM (RET(V804L)): 67%
- remaining binding at 10 µM (ACVR1B): 91%
- remaining binding at 10 µM (LRRK2): 100%
- remaining binding at 10 µM (CDK8): 98%
- remaining binding at 10 µM (PCTK1): 91%
- remaining binding at 10 µM (CAMK1): 100%
- remaining binding at 10 µM (TIE2): 55%
- remaining binding at 10 µM (CDK4-cyclinD3): 53%
- remaining binding at 10 µM (PFTAIRE2): 52%
- remaining binding at 10 µM [1]: 67%
- remaining binding at 10 µM (PIP5K1A): 6%
- remaining binding at 10 µM (PIK3CA(H1047Y)): 87%
- remaining binding at 10 µM (DCAMKL3): 64%
- remaining binding at 10 µM (CLK2): 51%
- remaining binding at 10 µM (PIK3CG): 82%
- remaining binding at 10 µM (MEK4): 100%
- remaining binding at 10 µM (PRKD2): 100%
- remaining binding at 10 µM (PRKCE): 88%
- remaining binding at 10 µM (LOK): 9.8%
- remaining binding at 10 µM (PRKD3): 100%
- remaining binding at 10 µM (FLT3(D835V)): 23%
- remaining binding at 10 µM (TNK1): 88%
